In patent US12202829B2, “Heterocyclic compound” (FIMECS, Inc., priority 2018, dated 2025):
Counter-ions that a name gives are not always drawn.

Target: T1, human XIAP_BIR3 domain purified protein (Homo sapiens, UniProt P98170)
T1 construct: purchased R & D
Assay: XIAP binding inhibitory activity, HTRF method with b-Smac ligand
Settings: for inhibition at 3 µM: test compound 3 μM, first symbol of the cell, read-out: XIAP binding inhibition rate when the concentration of the test compound is 3 μM; for IC50: second symbol of the cell, read-out: XIAP binding 50% inhibitory concentration (IC50 value)
Procedure: Human XIAP binding inhibitory activity were measured by the Homogeneous Time Resolved Fluorescence (HTRF) method with using commercially available human XIAP_BIR3 domain purified protein (R & D) and as a ligand a Smac N-terminal peptide (AVPIAQK (SEQ ID NO: 1)) (hereinafter referred to as “b-Smac”; Peptide Research Laboratories, Inc.) biotinylated at the C-terminus according to a conventional method.
The HTRF method will be described in detail below. A test compound diluted with a reaction buffer was added to a 384-well white shallow bottom plate (Greiner 784076) at 1 μL/well and flash centrifuged for 30 seconds. Subsequently, human XIAP_BIR3 domain purified protein was diluted with the reaction buffer (25 mM HEPES Buffer containing 100 mM NaCl, 0.1% BSA, and 0.1% triton X-100, pH 7.5) to obtain a 90 nM sample diluent, and the resultant sample diluent was added to the above-mentioned white superficial plate at 4.5 μL/well and flash centrifuged for 30 seconds. Subsequently, b-Smac diluted to 90 nM with the reaction buffer was added to the above-mentioned white superficial plat at 4.5 μL/well and flash centrifuged for 30 seconds. A mixed solution of Anti-6 HIS-Cryptate (Eu3+Cryptate-conjugated mouse monoclonal antibody anti-6 Histidine; cisbio) and Streptavidin-XL^ent! (Highgrade XL665-conjugated streptavidin; cisbio) both diluted 100-fold with HTRF detection buffer (cisbio) at a volume ratio of 1:1 was added to the above white superficial plate at 10 μL/well. After flash centrifuging the white shallow bottom plate for 30 seconds, the white shallow bottom plate was left at room temperature for 4 hours or more in the dark. The white superficial plate after being left was subjected to fluorescence intensity measurement (excitation wavelength: 320 nm, fluorescence wavelength: 665 nm and 615 nm) by EnVision (Perkin Elmer).
The binding inhibition rate (%) was calculated based on the HTRF ratio in the presence of the test compound to the HTRF ratio in the absence of the test compound (fluorescence intensity at 665 nm/fluorescence intensity at 615 nm).

T1 sequence (P98170 252-356 limits assumed): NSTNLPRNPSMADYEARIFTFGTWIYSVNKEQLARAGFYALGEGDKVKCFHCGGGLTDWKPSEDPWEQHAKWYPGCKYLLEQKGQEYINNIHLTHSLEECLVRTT

SMILES	inhibition at 3 µM	IC50
CN[C@@H](C)C(=O)N[C@H](C(=O)N1CCN(C(=O)c2cc(C(F)(F)F)nn2C)CC1)C1CCCCC1 [Example 11, (S)-N-((S)-1-cyclohexyl-2-(4-(1-methyl-3-(trifluoromethyl)-1H-pyrazole-5-carbonyl)piperazin-1-yl)-2-oxoethyl)-2-(methylamino)propanamide]	> 25%	–
CN[C@@H](C)C(=O)N[C@H](C(=O)N1CCN(C(=O)c2c(C(=O)NCCOCCOCCOCC(=O)N3CCN(c4cc(Nc5ncc(C(=O)Nc6c(C)cccc6Cl)s5)nc(C)n4)CC3)c3cc(F)ccc3n2C)CC1)C1CCCCC1 [Example 84, N-(2-chloro-6-methylphenyl)-2-((6-(4-(1-(2-(4-((S)-2-cyclohexyl-2-((S)-2-(methylamino)propanamido)acetyl)piperazine-1-carbonyl)-5-fluoro-1-methyl-1H-indol-3-yl)-1-oxo-5,8,11-trioxa-2-azatridecan-13-oyl)piperazin-1-yl)-2-methylpyrimidin-4-yl)amino)thiazole-5-carboxamide]	50 to 75%	–
CN[C@@H](C)C(=O)N[C@H](C(=O)N1CCN(C(=O)c2c(C(=O)NCCOCCOCCOCCNC(=O)C[C@@H]3N=C(c4ccc(Cl)cc4)c4c(sc(C)c4C)-n4c(C)nnc43)c3ccc(OC)cc3n2C)CC1)C1CCCCC1 [Example 73, N-(1-((S)-4-(4-chlorophenyl)-2,3,9-trimethyl-6H-thieno[3,2-f][1,2,4]triazolo[4,3-a][1,4]diazepin-6-yl)-2-oxo-6,9,12-trioxa-3-azatetradecan-14-yl)-2-(4-((S)-2-cyclohexyl-2-((S)-2-(methylamino)propanamido)acetyl)piperazine-1-carbonyl)-6-methoxy-1-methyl-1H-indole-3-carboxamide]	–	< 0.3 µM
CN[C@@H](C)C(=O)N[C@H](C(=O)N1C[C@H]2CC[C@@H]1CN2C(=O)c1cc2cc(F)c(F)cc2n1C)C1CCCCC1 [Example 59, (2S)-N-((1S)-1-cyclohexyl-2-(5-((5,6-difluoro-1-methyl-1H-indol-2-yl)carbonyl)-2,5-diazabicyclo[2.2.2]octan-2-yl)-2-oxoethyl)-2-(methylamino)propanamide]	–	3 to 30 µM
CN[C@@H](C)C(=O)N[C@H](C(=O)N1CCN(C(=O)c2cc3ccc(OC)cc3n2C)C[C@@H]1C)C1CCCCC1 [Example 32, (S)—N—((S)-1-Cyclohexyl-2-((S)-4-(6-methoxy-1-methyl-1H-indole-2-carbonyl)-2-methylpiperazin-1-yl)-2-oxoethyl)-2-(methylamino)propanamide Hydrochloride]	50 to 75%	–
CN[C@@H](C)C(=O)N[C@H](C(=O)N1CCN(C(=O)c2ccc3cnn(C)c3c2)CC1)C1CCCCC1 [Example 17, (S)-N-((S)-1-cyclohexyl-2-(4-(1-methyl-1H-indazole-6-carbonyl)piperazin-1-yl)-2-oxoethyl)-2-(methylamino)propanamide]	> 25%	–
CN[C@@H](C)C(=O)N[C@H](C(=O)N1CCN(C(=O)c2ccc3cc(C)cn3c2)CC1)C1CCCCC1 [Example 20, (S)-N-((S)-1-cyclohexyl-2-(4-(2-methylindolizine-6-carbonyl)piperazin-1-yl)-2-oxoethyl)-2-(methylamino)propanamide]	> 75%	–
CN[C@@H](C)C(=O)N[C@H](C(=O)N1CCN(C(=O)c2c(C(=O)NCCOC)c3ccc(OC)cc3n2C)CC1)C1CCCCC1 [Example 25, 2-(4-((S)-2-Cyclohexyl-2-((S)-2-(methylamino)propanamido)acetyl)piperazine-1-carbonyl)-6-methoxy-N-(2-methoxyethyl)-1-methyl-1H-indole-3-carboxamide Hydrochloride]	> 75%	–
CN[C@@H](C)C(=O)N[C@H](C(=O)N1CCN(C(=O)c2cc(C3CC3)nn2C)CC1)C1CCCCC1 [Example 9, (S)-N-((S)-1-cyclohexyl-2-(4-(3-cyclopropyl-1-methyl-1H-pyrazole-5-carbonyl)piperazin-1-yl)-2-oxoethyl)-2-(methylamino)propanamide]	> 25%	–
CN[C@@H](C)C(=O)N[C@H](C(=O)N1CCN(C(=O)c2c(C(=O)NCCOCCOCCOCCOc3ccc(NC(=O)C[C@@H]4N=C(c5ccc(Cl)cc5)c5c(sc(C)c5C)-n5c(C)nnc54)cc3)c3cc(F)c(F)cc3n2C)CC1)C1CCCCC1 [Example 79, N-(2-(2-(2-(2-(4-(2-((S)-4-(4-chlorophenyl)-2,3,9-trimethyl-6H-thieno[3,2-f][1,2,4]triazolo[4,3-a][1,4]diazepin-6-yl)acetamido)phenoxy)ethoxy)ethoxy)ethoxy)ethyl)-2-(4-((S)-2-cyclohexyl-2-((S)-2-(methylamino)propanamido)acetyl)piperazine-1-carbonyl)-5,6-difluoro-1-methyl-1H-indole-3-carboxamide]	–	0.3 to 3 µM
CN[C@@H](C)C(=O)N[C@H](C(=O)N1CCN(C(=O)c2cc3cc(F)ccc3n2CC(=O)NCCOCCOCCOCCNC(=O)C[C@@H]2N=C(c3ccc(Cl)cc3)c3c(sc(C)c3C)-n3c(C)nnc32)CC1)C1CCCCC1 [Example 77, (S)-N-((S)-2-(4-(1-(17-((S)-4-(4-chlorophenyl)-2,3,9-trimethyl-6H-thieno[3,2-f][1,2,4]triazolo[4,3-a][1,4]diazepin-6-yl)-2,16-dioxo-6,9,12-trioxa-3,15-diazaheptadecyl)-5-fluoro-1H-indole-2-carbonyl)piperazin-1-yl)-1-cyclohexyl-2-oxoethyl)-2-(methylamino)propanamide]	> 25%	–

The next lines start with the values.

inhibition at 3 µM	IC50	SMILES
–	3 to 30 µM	CN[C@@H](C)C(=O)N[C@H](C(=O)N1CCN(C(=O)c2cc3cc(F)ccc3n2CCOC)CC1)C1CCCCC1 [Example 52, (S)—N—((S)-1-Cyclohexyl-2-(4-(5-fluoro-1-(2-methoxyethyl)-1H-indole-2-carbonyl)piperazin-1-yl)-2-oxoethyl)-2-(methylamino)propanamide]
50 to 75%	–	CN[C@@H](C)C(=O)N[C@H](C(=O)N1CCN(C(=O)c2cc3cccc(C)c3n2C)CC1)C1CCCCC1 [Example 16, (S)-N-((S)-1-cyclohexyl-2-(4-(1,7-dimethyl-1H-indole-2-carbonyl)piperazin-1-yl)-2-oxoethyl)-2-(methylamino)propanamide]
> 75%	–	CN[C@@H](C)C(=O)N[C@H](C(=O)N1CCN(C(=O)c2ccc3c(c2)c(F)c(C)n3CCOCCOCCO)CC1)C1CCCCC1 [Example 71, (S)—N—((S)-1-Cyclohexyl-2-(4-(3-fluoro-1-(2-(2-(2-hydroxyethoxy)ethoxy)ethyl)-2-methyl-1H-indole-5-carbonyl)piperazin-1-yl)-2-oxoethyl)-2-(methylamino)propanamide]
50 to 75%	–	CN[C@@H](C)C(=O)N[C@H](C(=O)N1CCN(C(=O)c2cc3ccc(F)cc3n2C)CC1)C1CCCCC1 [Example 14, (S)-N-((S)-1-cyclohexyl-2-(4-(6-fluoro-1-methyl-1H-indole-2-carbonyl)piperazin-1-yl)-2-oxoethyl)-2-(methylamino)propanamide]
–	3 to 30 µM	CN[C@@H](C)C(=O)N[C@H](C(=O)N1CCN(C(=O)c2cc3cc(F)c(F)cc3n2CCOCCOCc2ccccc2)CC1)C1CCCCC1 [Example 44, (S)—N—((S)-2-(4-(1-(2-(2-(Benzyloxy)ethoxy)ethyl)-5,6-difluoro-1H-indole-2-carbonyl)piperazin-1-yl)-1-cyclohexyl-2-oxoethyl)-2-(methylamino)propanamide]
> 75%	–	CN[C@@H](C)C(=O)N[C@H](C(=O)N1CCN(C(=O)c2cc3cc(F)ccc3n2C)CC1)C1CCCCC1 [Example 15, (S)-N-((S)-1-cyclohexyl-2-(4-(5-fluoro-1-methyl-1H-indole-2-carbonyl)piperazin-1-yl)-2-oxoethyl)-2-(methylamino)propanamide]
–	3 to 30 µM	CN[C@@H](C)C(=O)N[C@H](C(=O)N1CCN(C(=O)c2cc3cc(F)c(F)cc3n2CCOCCOCCOCCO)CC1)C1CCCCC1 [Example 48, (S)—N—((S)-1-Cyclohexyl-2-(4-(5,6-difluoro-1-(2-(2-(2-(2-hydroxyethoxy)ethoxy)ethoxy)ethyl)-1H-indole-2-carbonyl)piperazin-1-yl)-2-oxoethyl)-2-(methylamino)propanamide]
> 75%	–	CN[C@@H](C)C(=O)N[C@H](C(=O)N1CCN(C(=O)c2cc3ccc(OC)cc3n2C)CC1)C1CCCCC1 [Example 1, (S)—N—((S)-1-Cyclohexyl-2-(4-(6-methoxy-1-methyl-1H-indole-2-carbonyl)piperazin-1-yl)-2-oxoethyl)-2-(methylamino)propanamide Hydrochloride]
–	3 to 30 µM	CN[C@@H](C)C(=O)N[C@H](C(=O)N1CCN(C(=O)c2cc3c(OCCOCCOCCOCc4ccccc4)c(F)c(F)cc3n2C)CC1)C1CCCCC1 [Example 66, (S)—N—((S)-2-(4-(4-(2-(2-(2-(Benzyloxy)ethoxy)ethoxy)ethoxy)-5,6-difluoro-1-methyl-1H-indole-2-carbonyl)piperazin-1-yl)-1-cyclohexyl-2-oxoethyl)-2-(methylamino)propanamide]
